Measured values from patent US9980943B2, “Methods of treating muscular dystrophy” (BOARD OF REGENTS OF THE NEVADA SYSTEM OF HIGHER EDUCATION, …, priority 2013, dated 2018).

Legend:
Type in all cases: cell-based, mouse
[1] = system: β-galactosidase in CMV-LacZ C2C12 myotubes; experiment: CMV-LacZ secondary screen in C2C12 myotubes (β-Gal stabilizing assay); details: C2C12 CMV-LacZ myotubes, fold relative to DMSO
Outline: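 β-Gal level was the read-out, measured in a clonal C2C12 line expressing LacZ from a CMV promoter. Dose-response curves used six concentrations, 0.5 μM up to 40 μM, with duplicate points.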

[2] = system: α7 integrin (LacZ reporter in α7βgal+/− myoblasts); experiment: Myoblast α7+/LacZ integrin FDG assay (Burkin assay in myoblasts, 96-well); details: α7+/LacZ myoblasts, 96-well
[3] = system: α7 integrin (LacZ reporter in α7+/LacZ myotubes); experiment: Myotube α7 integrin FDG assay (Burkin assay in myotubes, 96-well); details: myotubes

Row | SMILES | CMV-LACZ in Myotubes, signal relative to DMSO ([1]; 5 uM) | CMV-LACZ in Myotubes, signal relative to DMSO ([1]; 10 uM) | CMV-LACZ in Myotubes, signal relative to DMSO ([1]; 20 uM) | CMV-LACZ in Myotubes, signal relative to DMSO ([1]; 40 uM) | Burkin Assay in Myoblasts, signal relative to DMSO ([2]; 0.5 uM) | Burkin Assay in Myoblasts, signal relative to DMSO ([2]; 1 uM) | Burkin Assay in Myoblasts, signal relative to DMSO ([2]; 5 uM) | Burkin Assay in Myoblasts, signal relative to DMSO ([2]; 10 uM) | Burkin Assay in Myoblasts, signal relative to DMSO ([2]; 20 uM) | Burkin Assay in Myoblasts, signal relative to DMSO ([2]; 40 uM) | Burkin Assay in Myotubes, α7 integrin LacZ reporter signal relative to DMSO ([3]; 0.5 uM) | Burkin Assay in Myotubes, α7 integrin LacZ reporter signal relative to DMSO ([3]; 1 uM) | Burkin Assay in Myotubes, α7 integrin LacZ reporter signal relative to DMSO ([3]; 5 uM) | Burkin Assay in Myotubes, α7 integrin LacZ reporter signal relative to DMSO ([3]; 10 uM) | Burkin Assay in Myotubes, α7 integrin LacZ reporter signal relative to DMSO ([3]; 20 uM) | Burkin Assay in Myotubes, α7 integrin LacZ reporter signal relative to DMSO ([3]; 40 uM) | Burkin Assay in Myoblasts, value relative to DMSO ([2]; 0.5 uM) | Burkin Assay in Myoblasts, value relative to DMSO ([2]; 1 uM) | Burkin Assay in Myoblasts, value relative to DMSO ([2]; 5 uM) | Burkin Assay in Myoblasts, value relative to DMSO ([2]; 10 uM) | also measured
1 | COc1ccc(C)cc1NC(=O)c1ccc2c(O)c(S(=O)(=O)c3ccccc3)c(=O)[nH]c2c1 [MLS001122718-01] | 0.8862 | 0.9662 | 0.9567 | 0.89 | 1.1056 | 1.041 | 1.033 | 0.9092 | 0.9923 | 0.9332 | 1.011 | 0.9435 | 1.069 | 1.106 | 1.089 | 0.9804 |  |  |  |  | 
2 | COc1cc(NC(=O)CN(C)S(=O)(=O)c2ccc3c(c2)CC(C)N3C(C)=O)cc(OC)c1OC (stereo not shown) [MLS001122792-01] | 0.8137 | 0.9675 | 0.9969 | 0.7254 |  |  |  |  |  |  |  |  |  |  |  |  | 0.9702 | 0.8787 | 0.913 | 0.8643 | Burkin Assay in Myoblasts, value relative to DMSO ([2]; 20 uM): 0.9989; Burkin Assay in Myoblasts, value relative to DMSO ([2]; 40 uM): 0.8058; Burkin Assay in Myotubes (signal relative to DMSO) ([3]; 0.5 uM): 1.192; Burkin Assay in Myotubes (signal relative to DMSO) ([3]; 1 uM): 1.032; Burkin Assay in Myotubes (signal relative to DMSO) ([3]; 5 uM): 1.102; Burkin Assay in Myotubes (signal relative to DMSO) ([3]; 10 uM): 0.6414; Burkin Assay in Myotubes (signal relative to DMSO) ([3]; 20 uM): 1.068; Burkin Assay in Myotubes (signal relative to DMSO) ([3]; 40 uM): 0.8522
3 | COC(=O)c1ccc(COC(=O)CNC(=O)c2cccs2)cc1 [MLS001123810-01] | 0.8812 | 0.815 | 1.159 | 0.9346 |  |  |  |  |  |  |  |  |  |  |  |  | 0.9767 | 0.9524 | 0.9782 | 0.9779 | Burkin Assay in Myoblasts, value relative to DMSO ([2]; 20 uM): 0.8853; Burkin Assay in Myoblasts, value relative to DMSO ([2]; 40 uM): 0.8729; Burkin Assay in Myotubes (signal relative to DMSO) ([3]; 0.5 uM): 0.974; Burkin Assay in Myotubes (signal relative to DMSO) ([3]; 1 uM): 0.9657; Burkin Assay in Myotubes (signal relative to DMSO) ([3]; 5 uM): 1.417; Burkin Assay in Myotubes (signal relative to DMSO) ([3]; 10 uM): 1.116; Burkin Assay in Myotubes (signal relative to DMSO) ([3]; 20 uM): 0.9515; Burkin Assay in Myotubes (signal relative to DMSO) ([3]; 40 uM): 0.9694
4 | COc1ccc(NC(=O)c2cccc(N3C(=O)c4ccc(C(=O)Nc5ccc(OC)c(O)c5)cc4C3=O)c2)cc1O [MLS001124732-01] | 1.025 | 1.016 | 1.07 | 0.972 | 1.121 | 1.071 | 0.8622 | 0.8125 | 0.6893 | 0.6581 | 1.0065 | 1.029 | 0.8759 | 0.8964 | 0.8719 | 0.7888 |  |  |  |  | 
